For test [1], the system named is THP-1 cells. Kind of test: THP-1 cell growth in presence of ZA lipid coated stents or molecular ZA (Examples 6 and 7). Format: cell-based. Particulars: Homo sapiens, THP-1, 96 h, 4 days of culture. As for the experimental part: To monitor cell growth in the presence of liposomes containing ZA, 5×10^5 THP-1 cells are plated into 24—well cluster plates (Corning Inc.) in complete RPMI-1640 medium at 1 mL volume. About 3-4 hours later, the lipid coated stents of Example 5 are added into the THP-1 cell culture (5×10^5 cells/mL). The cells in the presence of medium alone or treated with empty liposomes (no drug) served as a control. ZA in molecular form was added for comparison at a concentration of 5 and 1 μg/mL. After 4 days of culture, the cells in each culture were harvested and counted using a hemocytometer; viability was evaluated by trypan blue exclusion method.
The two sets of samples were placed in cell cultures containing THP-1 macrophage type cells. HAp coated stents impregnated with molecular ZA (configuration B) are placed in 2 ml PBS dissolution media and rotated at a speed of 20 rpm at 37.2° C. Samples are taken at various time intervals and analyzed using HPLC.

In test [2] the test system is THP-1 (Human Monocytic Leukemia) cell culture. Kind of test: THP-1 cell growth inhibition by ZA released from lipid bilayer stent coating (Example 16). Format: cell-based. Particulars: THP-1, 96 h, 4 days. The procedure: Hydroxyapatite coated stents were further coated with the lipid film in a manner similar to that described in Examples 12 and 13, except that the film contained 2 μg of zoledronic acid (ZA). The stents were added to THP-1 (Human Monocytic Leukemia) cell culture (5×10^5 cells/mL) and compared to ZA alone added at concentration of 5 and 1 μg/mL. After 4 days, the cells in each culture were harvested and counted.

As a reminder, the inhibition is how much of the control response was suppressed.

In the case of `O=P(O)(O)C(O)(Cn1ccnc1)P(=O)(O)O` [ZA, zoledronic acid], the inhibition at 1 µg/mL in test [1] (1 μg/mL) and in test [2] (1 μg/mL) was 0.6% throughout. Further, the inhibition at 5 µg/mL in test [1] (5 μg/mL) and in test [2] (5 μg/mL) was 20% each time.

Values taken from US20080181928A1, “COATINGS FOR IMPLANTABLE MEDICAL DEVICES FOR LIPOSOME DELIVERY” (MIV Therapeutics, Inc., priority 2006, published 2008).
